Source: patent US12576069B2, “Compositions and methods for treating slow-flow vascular malformations” (YALE UNIVERSITY, priority 2019, dated 2026)
Where two headings read alike, the source gives them in different places. Values belong to the molecule of their own block, whether it stands above or below them.

Legend:
[1] = cited from earlier work
[2] = test system: congenital vascular malformations; conditions: conventional treatment of vascular malformations; at times lethal; cited from earlier work
[3] = test system: complicated vascular malformations; conditions: cited from earlier work
[4] = oral rapamycin, toxicities attributable to rapamycin

Description for venous malformation: A relatively healthy patient with severely symptomatic venous malformations of the subcutaneous and intramuscular components of their thigh was treated according to methods of the disclosure. Their lesions were examined and diagnosis of the condition was made and confirmed based on duplex ultrasound and contrast enhanced MRI. […] Solutions were delivered to the patient using an operating suite using a sterile syringe. A total of 2 mL of omnipaque intravenous contrast was added into the mixture for radiopacity purposes under fluoroscopy and for in vivo visualization of the drug. Final concentration of the mixture was approximately 1 mg/mL This mixture was agitated via a three-way stopcock in the absence of air. The venous malformations were accessed percutaneously, using ultrasound and x-ray guidance. […] Different components of this multi focal venous malformation were similarly targeted and treated. […] Needle access tracts were plugged using a collagen matrix foam, and a sterile dressing was applied. The procedure was done under general endotracheal anesthesia, and the patient received postoperative anti-inflammatory and analgesic medications. […] A healthy patient with a disfiguring, symptomatic venous malformation of the subcutaneous tissues of the left nare was treated according to methods of the disclosure. Their lesion was examined, and diagnosis of the condition was made and confirmed based on contrast enhanced MRI. […] Solutions were delivered to the patient using an operating suite using a sterile syringe. A total of 2 mL of omnipaque intravenous contrast was added into the mixture for radiopacity purposes under fluoroscopy and for in vivo visualization of the drug. Final concentration of the mixture was approximately 1 mg/mL. This mixture was agitated via a three-way stopcock in the absence of air. The venous malformation was accessed percutaneously, using ultrasound and x-ray guidance. […] Different components of this focal venous malformation were similarly targeted and treated. […] Needle access tracts were plugged using a collagen matrix foam, and a sterile dressing was applied. The procedure was done under general endotracheal anesthesia, and the patient received postoperative anti-inflammatory and analgesic medications.

fevers or infection at follow-up (venous malformation; human, in vivo): no evidence of fevers or infection
fevers, infection at follow-up (venous malformation; human, in vivo): no evidence of fevers, infection
perioperative complications (venous malformation; human, in vivo): no perioperative complications
post-operative labs (venous malformation; human, in vivo): within expected, normal limits
Structure (SMILES): CO[C@H]1C[C@@H]2CC[C@@H](C)[C@@](O)(O2)C(=O)C(=O)N2CCCC[C@H]2C(=O)O[C@H]([C@H](C)C[C@@H]2CC[C@@H](OC(=O)C(C)(CO)CO)[C@H](OC)C2)CC(=O)[C@H](C)/C=C(\C)[C@@H](O)[C@@H](OC)C(=O)[C@H](C)C[C@H](C)/C=C/C=C/C=C/1C [Temsirolimus]
peak concentration Cmax, temsirolimus compared with sirolimus ([1]; IV infusion, theoretical comparison of equal units): almost similar
pain relief at follow-up (venous malformation; Example 1, post-operative day two, 14, and 90): excellent pain relief
venous flow in the malformation, color flow Doppler (venous malformation; Example 2, left nasal venous malformation, FIGS. 5A-5B): diminished venous flow
pain relief at follow-up (venous malformation; Example 2, post-operative day 14 and day ~90): partial pain relief
normal arterial flow adjacent to the malformation, spectral waveform analysis (venous malformation; human, in vivo): preservation of intervening normal arterial network of the face

Structure (SMILES): CCO [absolute ethanol, ethanol]
side effect profile [2]: up to 50%

Structure (SMILES): CO[C@H]1C[C@@H]2CC[C@@H](C)[C@@](O)(O2)C(=O)C(=O)N2CCCC[C@H]2C(=O)O[C@H]([C@H](C)C[C@@H]2CC[C@@H](O)[C@H](OC)C2)CC(=O)[C@H](C)/C=C(\C)[C@@H](O)[C@@H](OC)C(=O)[C@H](C)C[C@H](C)/C=C/C=C/C=C/1C [rapamycin]
sirolimus AUC relative to temsirolimus AUC ([1]; single 25 mg intravenous dose of temsirolimus, patients with cancer): 2.7 fold
patients taken off of the study due to persistent adverse effects ([3]; oral rapamycin, phase II trial enrolling 61 patients): Two
Grade 3 and higher blood/bone marrow toxicity, share of patients [3, 4]: 27%
Grade 3 and higher gastrointestinal toxicity, share of patients [3, 4]: 3%
Grade 3 and higher metabolic/laboratory toxicity, share of patients [3, 4]: 3%
other commonly reported negative side effects ([3]; systemic rapamycin): stomatitis, headache, infections, myelodepression, acne, and hyperlipidemia
